Laboratory results reported in article PMC9024338, “Bruceine H Mediates EGFR-TKI Drug Persistence in NSCLC by Notch3-Dependent β-Catenin Activating FOXO3a Signaling” (Frontiers in Oncology, 2022).

How the values were obtained:
[1] = test system: PC-9/GR cells; experiment: Apoptosis by flow cytometry (Annexin V-FITC/PI), PC-9/GR; format: cell-based, human; settings: low-dose BH (4, 8 μM), gefitinib 25 μM, alone or combined
Method: After being digested with trypsin without EDTA, the cells were washed gently with culture medium and twice with cold PBS. The pellet was resuspended in 400 μl of 1× binding buffer, the resuspended cells were transferred to flow tubes, then Annexin V-FITC (5 μl) and propidium iodide (10 μl) were added, and the mixture was incubated for 15 min at room temperature in the dark. The percentage of apoptotic cells was determined by flow cytometry (Backman, CA, USA) and FlowJo V10 software.

[2] = test system: PC-9/GR xenografts; experiment: PC-9/GR xenografts in BALB/c nude mice; format: in vivo; settings: BH 2.5 mg/kg, gefitinib 25 mg/kg, alone or co-administered, intragastric
[3] = Toxicity study in nude mice: organ index, blood routine, serum biochemistry; format: in vivo
Method: At the end of the experiment, blood samples were taken and analyzed by blood routine. […] The lungs and spleen were weighed and recorded. H&E staining of the heart, liver, spleen, lungs, and kidneys was performed to evaluate the cytotoxic effects of BH.

[4] = test system: A549 cells; experiment: cells; format: cell-based, human; settings: A549, 48 h; read-out: IC50 (48 h)
Method: (§1) The human NSCLC cell lines (A549, PC-9, and PC-9/GR) and other cell lines (16HBE and LO2) were purchased from the American Type Culture Collection (ATCC, Manassas, VA, USA). […] All cell lines were cultivated at 37°C under 5% CO2.
(§2) The Cell Counting Kit-8 assays (Beyotime, Shanghai, China) were performed to assess cell viability. […] Microplate readers (Infinite F500, Tecan, Mannedorf, Switzerland) were used to measure the absorbance (A) at 450 nm. All samples were assessed in triplicate.

[5] = test system: PC-9 cells; experiment: cells; format: cell-based, human; settings: PC-9, 48 h; read-out: IC50
Method: as §1, §2

[6] = test system: A549 cells; experiment: Transwell migration and Matrigel invasion assays; format: cell-based, human; settings: dose-dependent, 12 h treatment
Method: The Transwell insert in a 24-well plate (8 μm, Corning, NY, USA) was taken out, and a 600-μl medium containing 10% FBS was added to the bottom chamber. The A549 cells were resuspended with 10% FBS culture medium, and the diluted cell suspension (3 × 10^5/300 μl) was cultured in the top chamber and then incubated with or without Matrigel (BD BioCoat). After 12 h, the medium in the top chamber was changed to RPMI-1640 without FBS, and BD or BH with different concentrations was added ([31]). After an additional 12 h, the cells that migrated or invaded the bottom side of the polycarbonate film were fixed with methanol for 30 min and then stained for 15 min with 0.1% crystal violet (Solarbio), after which their number was assessed under a microscope (×4, Nikon).

[7] = test system: 16HBE cells; experiment: Toxicity to normal human cell line 16HBE (Figure S1); format: cell-based
Method: (§3) Figure S1. The toxicity of Bruceine H (BH) and Bruceine D (BD) to 16HBE (A) and LO2 (B) cells was evaluated.

[8] = test system: LO2 cells; experiment: Toxicity to normal human cell line LO2 (Figure S1); format: cell-based
Method: as §3

[9] = nude mice serum, mean ± SD (Table S4)
[10] = nude mice, routine blood (Table S3)

COc1cc2ncnc(Nc3ccc(F)c(Cl)c3)c2cc1OCCCN1CCOCC1 [Gef, Gefitinib, reference compound]
apoptosis of PC-9/GR cells [1]: little effects | tumor growth of PC-9/GR xenografts [2]: slight inhibitory effect | HDL-C [3, 9]: 0.74 ± 0.28 mmol/L | LDL-C [3, 9]: 0.89 ± 0.45 mmol/L | TC [3, 9]: 3.49 ± 0.56 mmol/L | TG [3, 9]: 0.74 ± 0.16 mmol/L | GR [3, 10]: 4.593±2.519 ×10^9/L | GR (%) [3, 10]: 83.467±4.674% | HCT [3, 10]: 50.933±6.123% | HGB [3, 10]: 148.667 ± 17.616 g/L | LY [3, 10]: 1.017±0.533 ×10^9/L | LY (%) [3, 10]: 14.2±2.685% | MCH [3, 10]: 15.367 ± 0.306 pg | MCHC [3, 10]: 292 ± 2.646 g/L | MO [3, 10]: 0.213±0.274 ×10^9/L | MO (%) [3, 10]: 5.067±1.582% | MPV [3, 10]: 6.933 ± 0.351 fL | PCT [3, 10]: 0.653±0.110 mL/L | PLT [3, 10]: 934.333±117.1 ×10^9/L | RBC [3, 10]: 9.687±1.162 ×10^12/L | WBC [3, 10]: 6.483±1.439 ×10^8/L

CC1=CC(=O)[C@@H](O)[C@]2(C)[C@H]3[C@@H](O)[C@H](O)[C@@]4(C)OC[C@@]35[C@@H](C[C@@H]12)OC(=O)[C@H](O)[C@]54O [BD, bruceine D, reference compound]
IC50 [4]: 26.8 µM | IC50 [5]: 21.8 µM | Transwell migration and invasion of A549 [6]: significant anti-invasive and antimigratory actions | toxicity to 16HBE cells [7]: higher sensitivity | toxicity to LO2 cells [8]: higher sensitivity
